Data on 32 molecules can be found in patent US8410112B2, “Compounds useful as inhibitors of ATR kinase” (Vertex Pharmaceuticals Incorporated, priority 2008, dated 2013).

Each structure is given as a SMILES string.

T1 sequence (Q13535 whole entry): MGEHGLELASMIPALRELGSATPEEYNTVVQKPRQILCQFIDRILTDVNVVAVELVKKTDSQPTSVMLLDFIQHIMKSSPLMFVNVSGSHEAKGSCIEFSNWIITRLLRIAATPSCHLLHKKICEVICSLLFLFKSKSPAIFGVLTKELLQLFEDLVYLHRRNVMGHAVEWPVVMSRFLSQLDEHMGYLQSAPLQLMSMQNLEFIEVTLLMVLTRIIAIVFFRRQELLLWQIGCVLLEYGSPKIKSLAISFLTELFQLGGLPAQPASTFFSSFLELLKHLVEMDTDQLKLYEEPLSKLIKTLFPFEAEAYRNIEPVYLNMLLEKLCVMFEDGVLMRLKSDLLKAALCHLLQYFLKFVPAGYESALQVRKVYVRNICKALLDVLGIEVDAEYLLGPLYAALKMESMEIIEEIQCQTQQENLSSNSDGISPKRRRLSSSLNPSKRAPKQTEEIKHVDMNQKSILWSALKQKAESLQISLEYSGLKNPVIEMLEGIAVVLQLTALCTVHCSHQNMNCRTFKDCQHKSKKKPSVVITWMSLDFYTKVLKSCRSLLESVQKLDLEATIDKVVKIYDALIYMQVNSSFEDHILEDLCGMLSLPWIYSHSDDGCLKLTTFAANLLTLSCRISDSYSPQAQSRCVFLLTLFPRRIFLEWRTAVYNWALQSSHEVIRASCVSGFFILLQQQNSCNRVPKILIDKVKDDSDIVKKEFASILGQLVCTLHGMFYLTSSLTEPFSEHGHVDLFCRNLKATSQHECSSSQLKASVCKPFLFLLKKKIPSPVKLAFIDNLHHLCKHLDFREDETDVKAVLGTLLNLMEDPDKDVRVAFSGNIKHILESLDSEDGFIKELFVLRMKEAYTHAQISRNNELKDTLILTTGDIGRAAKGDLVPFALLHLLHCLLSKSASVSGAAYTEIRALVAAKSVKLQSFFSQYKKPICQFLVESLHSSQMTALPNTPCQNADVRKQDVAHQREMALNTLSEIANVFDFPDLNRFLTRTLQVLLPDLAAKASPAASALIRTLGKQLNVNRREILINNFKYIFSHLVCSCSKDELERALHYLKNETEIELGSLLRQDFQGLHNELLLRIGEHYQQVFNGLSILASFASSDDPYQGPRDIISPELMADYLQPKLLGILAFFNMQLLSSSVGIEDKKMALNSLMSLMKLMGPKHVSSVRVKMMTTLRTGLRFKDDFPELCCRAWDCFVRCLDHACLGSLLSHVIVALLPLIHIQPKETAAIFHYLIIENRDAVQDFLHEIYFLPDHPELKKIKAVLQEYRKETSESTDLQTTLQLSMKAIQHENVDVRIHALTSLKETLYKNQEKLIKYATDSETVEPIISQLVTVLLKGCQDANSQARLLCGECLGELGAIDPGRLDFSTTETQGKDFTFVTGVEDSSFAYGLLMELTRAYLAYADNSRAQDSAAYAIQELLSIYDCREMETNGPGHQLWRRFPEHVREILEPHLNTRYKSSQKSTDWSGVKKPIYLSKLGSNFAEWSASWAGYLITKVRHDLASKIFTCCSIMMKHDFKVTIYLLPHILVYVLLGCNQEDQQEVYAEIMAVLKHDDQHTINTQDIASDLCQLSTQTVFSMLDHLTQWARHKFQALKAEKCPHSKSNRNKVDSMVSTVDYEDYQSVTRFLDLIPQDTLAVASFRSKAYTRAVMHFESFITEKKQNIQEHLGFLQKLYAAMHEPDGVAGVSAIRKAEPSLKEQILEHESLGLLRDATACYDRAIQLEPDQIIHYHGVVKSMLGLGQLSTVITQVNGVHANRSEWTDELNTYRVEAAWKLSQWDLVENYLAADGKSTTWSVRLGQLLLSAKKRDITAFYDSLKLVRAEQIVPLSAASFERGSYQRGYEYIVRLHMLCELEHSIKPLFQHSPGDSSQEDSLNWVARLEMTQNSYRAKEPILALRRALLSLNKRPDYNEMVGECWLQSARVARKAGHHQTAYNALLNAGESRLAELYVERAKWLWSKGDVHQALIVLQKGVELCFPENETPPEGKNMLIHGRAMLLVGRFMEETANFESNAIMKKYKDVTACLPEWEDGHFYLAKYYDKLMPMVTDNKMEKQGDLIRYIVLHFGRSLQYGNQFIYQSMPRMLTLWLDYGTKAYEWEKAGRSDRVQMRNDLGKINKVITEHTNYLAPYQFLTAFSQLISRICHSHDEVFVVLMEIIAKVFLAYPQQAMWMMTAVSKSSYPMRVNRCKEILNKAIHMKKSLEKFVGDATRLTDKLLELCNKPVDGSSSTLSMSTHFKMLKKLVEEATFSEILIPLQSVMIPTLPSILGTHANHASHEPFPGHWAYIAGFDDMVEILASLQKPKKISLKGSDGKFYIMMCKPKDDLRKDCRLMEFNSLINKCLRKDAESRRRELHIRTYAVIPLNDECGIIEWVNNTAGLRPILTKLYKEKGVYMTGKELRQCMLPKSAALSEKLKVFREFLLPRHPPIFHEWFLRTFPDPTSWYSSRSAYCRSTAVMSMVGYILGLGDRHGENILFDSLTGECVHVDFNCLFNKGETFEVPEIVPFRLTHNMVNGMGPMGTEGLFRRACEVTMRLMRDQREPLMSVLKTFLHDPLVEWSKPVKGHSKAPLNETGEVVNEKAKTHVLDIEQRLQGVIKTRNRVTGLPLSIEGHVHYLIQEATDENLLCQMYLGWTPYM

The experiment concerns the target T1, full-length ATR (Homo sapiens, UniProt Q13535).
T1 construct: in the presence of 5 nM full-length ATR
In words: ATR Inhibition Assay (radioactive-phosphate incorporation). It is filed as biochemical. Conditions: Ki(app); 5 nM full-length ATR, 10 μM ATP, 800 μM target peptide, 25° C. The method, then:
Test compounds were screened for their ability to inhibit ATR kinase using a radioactive-phosphate incorporation assay. Assays were carried out in a mixture of 50 mM
Tris/HCl (pH 7.5), 10 mM MgCl2 and 1 mM DTT. Final substrate concentrations were 10 μM [γ-33P]ATP (3 mCi 33 P ATP/mmol ATP, Perkin Elmer) and 800 μM target peptide ([…]). Assays were carried out at 25° C. in the presence of 5 nM full-length ATR. An assay stock buffer solution was prepared containing all of the reagents listed above, with the exception of ATP and the test compound of interest. […] The plate was pre-incubated for 10 minutes at 25° C. and the reaction initiated by addition of 15 μL [γ-33P]ATP (final concentration 10 μM).
The reaction was stopped after […] by the addition of 30 μL 0.1M phosphoric acid containing 2 mM ATP. A multiscreen phosphocellulose filter 96-well plate (Millipore, Cat no. MAPHN0B50) was pretreated with 100 μL 0.2M phosphoric acid prior to the addition of 45 μL of the stopped assay mixture. The plate was washed with 5×200 μL 0.2M phosphoric acid.
After removing mean background values for all of the data points, Ki(app) data were calculated from non-linear regression analysis of the initial rate data using the Prism software package (GraphPad Prism version 3.0cx for Macintosh, GraphPad Software, San Diego Calif., USA).
With `CC(C)(C)C(=O)N1CCN(c2cnc(N)c(-c3nnc(-c4ccccc4)o3)n2)CC1` [Compound I-198, 1-(4-(5-amino-6-(5-phenyl-1,3,4-oxadiazol-2-yl)pyrazin-2-yl)piperazin-1-yl)-2,2-dimethylpropan-1-one], the Ki fell in the range of 0.1 to 1 µM.
As to `CCS(=O)(=O)N1CCN(c2cnc(N)c(C(=O)/C=C/c3ccccc3)n2)CC1` [Compound I-73, (E)-1-(3-amino-6-(4-(ethylsulfonyl)piperazin-1-yl)pyrazin-2-yl)-3-phenylprop-2-en-1-one], the Ki lay in the range of 1 to 10 µM.
Next, `Nc1ncc(N2CCN(C(=O)C3CCCCC3)CC2)nc1-c1nc2ccccc2[nH]1` [Compound I-112, (4-(5-amino-6-(1H-benzo[d]imidazol-2-yl)pyrazin-2-yl)piperazin-1-yl)(cyclohexyl)methanone]: 0.1 to 1 µM.
In the case of `Nc1ncc(-n2ccc(=O)cc2)nc1-c1nc2ccccc2[nH]1` [Compound I-311, 1-[5-amino-6-(1H-benzimidazol-2-yl)pyrazin-2-yl]pyridin-4-one], the Ki is below 0.1 µM.
For the molecule `Nc1ncc(C2=CCN(C(=O)c3cccnc3)CC2)nc1-c1nnc(-c2ccccc2)o1` [Compound I-129, (4-(5-amino-6-(5-phenyl-1,3,4-oxadiazol-2-yl)pyrazin-2-yl)-5,6-dihydropyridin-1(2H)-yl)(pyridin-3-yl)methanone], the Ki is below 0.1 µM.
As to `CCNC(=O)[C@@H]1CCCN1c1cnc(N)c(-c2nnc(-c3ccc(CNC)cc3)o2)n1` [Compound I-348, (25)-1-[5-Amino-6-[5-[4-(methylaminomethyl)phenyl]-1,3,4-oxadiazol-2-yl]pyrazin-2-yl]-N-ethyl-pyrrolidine-2-carboxamide], the Ki lay in the range of 1 to 10 µM.
On to `COCCOCC(=O)N[C@H]1CCN(c2cnc(N)c(-c3nc4ccccc4[nH]3)n2)C1` [Compound I-181, (S)-N-(1-(5-amino-6-(1H-benzo[d]imidazol-2-yl)pyrazin-2-yl)pyrrolidin-3-yl)-2-(2-methoxyethoxy)ethanamide], for which the Ki was in the range of 1 to 10 µM.
On to `Nc1ncc(N2CCN(C(=O)c3c(F)cccc3F)CC2)nc1-c1nnc(-c2ccccc2)o1` [Compound I-203, (4-(5-amino-6-(5-phenyl-1,3,4-oxadiazol-2-yl)pyrazin-2-yl)piperazin-1-yl)(2,6-difluorophenyl)methanone], for which the Ki is 0.1 to 1 µM.
Consider `Nc1ncc(N2CCN(C(=O)COc3ccccc3)CC2)nc1-c1nc2ccccc2[nH]1` [Compound I-273, 1-(4-(5-amino-6-(1H-benzo[d]imidazol-2-yl)pyrazin-2-yl)piperazin-1-yl)-2-phenoxyethanone], for which the Ki was 1 to 10 µM.
For the molecule `Nc1ncc(C2=CCNCC2)nc1-c1nnc(-c2ccccc2)o1` [Compound I-41, 3-(5-phenyl-1,3,4-oxadiazol-2-yl)-5-(1,2,3,6-tetrahydropyridin-4-yl)pyrazin-2-amine], the Ki lay in the range of 0.1 to 1 µM.
With `CC(C)(C)OC(=O)N1CC=C(c2cnc(N)c(-c3noc(-c4ccccc4)n3)n2)CC1` [Compound I-163, Tert-butyl 4-(5-amino-6-(5-phenyl-1,2,4-oxadiazol-3-yl)pyrazin-2-yl)-5,6-dihydropyridine-1(2H)-carboxylate], the Ki was in the range of 0.1 to 1 µM.
As for `Cc1ccc2nc(-c3nc(N4CCC(O)CC4)cnc3N)[nH]c2c1` [Compound I-5, 1-(5-amino-6-(6-methyl-1H-benzo[d]imidazol-2-yl)pyrazin-2-yl)piperidin-4-ol], the figure is 1 to 10 µM.
Regarding `CC(=O)N1CCN(c2cnc(N)c(-c3nc4ccc(C)cc4[nH]3)n2)CC1` [Compound I-10, 1-(4-(5-amino-6-(6-methyl-1H-benzo[d]imidazol-2-yl)pyrazin-2-yl)piperazin-1-yl)ethanone], the Ki was 0.1 to 1 µM.
For `CCS(=O)(=O)N1CCN(c2cnc(N)c(-c3nnc(-c4ccccc4C)o3)n2)CC1` [Compound I-287, 5-(4-ethylsulfonylpiperazin-1-yl)-3-[5-(o-tolyl)-1,3,4-oxadiazol-2-yl]pyrazin-2-amine], the Ki is 0.1 to 1 µM.
Regarding `Nc1ncc(N2CCN(C(=O)c3c(F)cccc3F)CC2)nc1-c1nc2ccccc2[nH]1` [Compound I-177, (4-(5-amino-6-(1H-benzo[d]imidazol-2-yl)pyrazin-2-yl)piperazin-1-yl)(2,6-difluorophenyl)methanone], the Ki lay in the range of 0.1 to 1 µM.
Regarding `CCS(=O)(=O)N1CCN(c2cnc(N)c(-c3nnc(-c4ccccc4F)o3)n2)CC1` [Compound I-299, 5-(4-ethylsulfonylpiperazin-1-yl)-3-[5-(2-fluorophenyl)-1,3,4-oxadiazol-2-yl]pyrazin-2-amine], the Ki is 0.1 to 1 µM.
As to `CCS(=O)(=O)N1CCN(c2cnc(N)c(-c3nnc(-c4cccc(F)c4)o3)n2)CC1` [Compound I-283, 5-(4-ethylsulfonylpiperazin-1-yl)-3-[5-(3-fluorophenyl)-1,3,4-oxadiazol-2-yl]pyrazin-2-amine], the Ki was in the range of 0.1 to 1 µM.
Take `Cc1ccc2nc(-c3nc(N4CCC(C(N)=O)CC4)cnc3N)[nH]c2c1` [Compound I-14, 1-(5-amino-6-(6-methyl-1H-benzo[d]imidazol-2-yl)pyrazin-2-yl)piperidine-4-carboxamide]: the Ki lay within 1 to 10 µM.
Consider `CCS(=O)(=O)N1CCN(c2cnc(N)c(-c3nnc(-c4ccc(CNC)cc4)o3)n2)CC1` [Compound I-325, 5-(4-Ethylsulfonylpiperazin-1-yl)-3-[5-[4-(methylaminomethyl)phenyl]-1,3,4-oxadiazol-2-yl]pyrazin-2-amine], for which the Ki was below 0.1 µM.
On to `CCS(=O)(=O)N1CC=C(c2cnc(N)c(C(=O)Nc3nc4ccccc4[nH]3)n2)CC1` [Compound I-172, 3-amino-N-(1H-benzo[d]imidazol-2-yl)-6-(1-(ethylsulfonyl)-1,2,3,6-tetrahydropyridin-4-yl)pyrazine-2-carboxamide], for which the Ki is below 0.1 µM.
As for `Nc1ncc(C2=CCN(C(=O)c3c(F)cccc3F)CC2)nc1-c1nnc(-c2ccccc2)o1` [Compound I-133, (4-(5-amino-6-(5-phenyl-1,3,4-oxadiazol-2-yl)pyrazin-2-yl)-5,6-dihydropyridin-1(2H)-yl)(2,6-difluorophenyl)methanone], the figure is below 0.1 µM.
As for `CCS(=O)(=O)N1CCN(c2cnc(N)c(-c3cc(-c4ccccc4)ncn3)n2)CC1` [Compound I-74, 5-(4-(ethylsulfonyl)piperazin-1-yl)-3-(6-phenylpyrimidin-4-yl)pyrazin-2-amine], the figure is 0.1 to 1 µM.
Regarding `CCS(=O)(=O)N1CCN(c2cnc(N)c(-c3noc(C)n3)n2)CC1` [Compound I-38, 5-(4-(ethylsulfonyl)piperazin-1-yl)-3-(5-methyl-1,2,4-oxadiazol-3-yl)pyrazin-2-amine], the Ki lay within 1 to 10 µM.
In the case of `CCS(=O)(=O)N1CC=C(c2cnc(N)c(-c3nc4ccccn4n3)n2)CC1` [Compound I-276, 3-([1,2,4]triazolo[1,5-a]pyridin-2-yl)-5-(1-(ethylsulfonyl)-1,2,3,6-tetrahydropyridin-4-yl)pyrazin-2-amine], the Ki is 1 to 10 µM.
`Nc1ncc(C2=CCN(C(=O)C3CCC3)CC2)nc1-c1nnc(-c2ccccc2)o1` [Compound I-128, (4-(5-amino-6-(5-phenyl-1,3,4-oxadiazol-2-yl)pyrazin-2-yl)-5,6-dihydropyridin-1(2H)-yl)(cyclobutyl)methanone]: the Ki was below 0.1 µM.
Take `Cc1ccc2nc(-c3nc(N4CCC(CO)CC4)cnc3N)[nH]c2c1` [Compound I-2, (1-(5-amino-6-(6-methyl-1H-benzo[d]imidazol-2-yl)pyrazin-2-yl)piperidin-4-yl)methanol]: the Ki was 1 to 10 µM.
`CNCc1ccc(-c2nnc(-c3nc(N4C[C@H]5CCC(OS(C)(=O)=O)[C@H]5C4)cnc3N)o2)cc1` (some centres unmarked) [Compound I-320]: the Ki was below 0.1 µM.
As for `Nc1ncc(N2C[C@@H]3CCC(=O)[C@@H]3C2)nc1-c1nnc(-c2ccccc2)o1` [Compound I-319, (3aS,6aR)-2-(5-Amino-6-(5-phenyl-1,3,4-oxadiazol-2-yl)pyrazin-2-yl)hexahydrocyclopenta[c]pyrrol-4(5H)-one], the Ki lay within 0.1 to 1 µM.
Turning to `COCC(=O)N1CC=C(c2cnc(N)c(-c3nnc(-c4ccccc4)o3)n2)CC1` [Compound I-130, 1-(4-(5-amino-6-(5-phenyl-1,3,4-oxadiazol-2-yl)pyrazin-2-yl)-5,6-dihydropyridin-1(2H)-yl)-2-methoxyethanone], the Ki is below 0.1 µM.
As for `CCCS(=O)(=O)N1CC=C(c2cnc(N)c(-c3nnc(-c4ccccc4)o3)n2)CC1` [Compound I-124, 3-(5-phenyl-1,3,4-oxadiazol-2-yl)-5-(1-(propylsulfonyl)-1,2,3,6-tetrahydropyridin-4-yl)pyrazin-2-amine], the figure is below 0.1 µM; as for `CCC(=O)N1CCC(c2cnc(N)c(-c3nnc(-c4ccc(CNC)cc4)o3)n2)CC1` [Compound I-353, 1-(4-(5-Amino-6-(5-(4-((methylamino)methyl)phenyl)-1,3,4-oxadiazol-2-yl)pyrazin-2-yl)piperidin-1-yl)propan-1-one], 0.1 to 1 µM.
For `Cc1ccc2nc(-c3nc(N4CCN(c5cccc(F)c5)CC4)cnc3N)[nH]c2c1` [Compound I-47, 5-(4-(3-fluorophenyl)piperazin-1-yl)-3-(6-methyl-1H-benzo[d]imidazol-2-yl)pyrazin-2-amine], the Ki was in the range of 1 to 10 µM.
